The text below walks through data of ChEMBL document CHEMBL1201862, “PubChem BioAssay data set” (2004).

Test systems include SF-539; MDA-MB-435; HCT-15; UO-31; SW-620; SNB-75; IGROV-1; T47D; Hs-578T; HOP-92; 786-0; NCI-H522; EKVX; BT-549; HT-29; KM12; SK-OV-3; DLD-1; KM-20L2; DMS-114.
What all share (test): inhibition of tumour cell growth, NCI panel, 48 h

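In this assay, cells in 96-well plates receive the compound at five concentrations for 48 hours. Endpoints are linearly interpolated between the surrounding concentrations. Abbreviation: GI50, concentration required for 50% inhibition of growth.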 Calls of active or inactive are those of the source. No stated cut-off is given here; in the data, active = GI50 up to about 1.1 µM and inactive = higher.

For `Cc1cc(O)c(-c2cc(O)c(C)cc2O)cc1O`, the GI50 with SF-539 is 3.02 µM (inactive); in the assay on MDA-MB-435 it was 3.05 µM (inactive); in the assay on HCT-15, 7.67 µM; in the assay with UO-31 it was 1.92 µM (inactive); in the assay with SW-620 it was 2.34 µM (inactive); in the assay on SNB-75 it was 14.9 µM (inactive). In addition, the GI50 in the assay on IGROV-1 is 11.5 µM (inactive); in the assay on T47D, 2.43 µM (inactive); with Hs-578T, 25.9 µM (inactive); in the assay with HOP-92 it was 2.25 µM (inactive); in the assay with 786-0 it was 2.94 µM (inactive); in the assay with NCI-H522, 4.04 µM (inactive). In addition, the GI50 with EKVX is 8.99 µM (inactive); in the assay on BT-549 it was 12.2 µM (inactive); in the assay on HT-29 it was 17.1 µM (inactive); with KM12, 12.6 µM (inactive); in the assay with SK-OV-3, 16.8 µM (inactive).

In the case of `CC(NS(=O)(=O)c1ccc([N+](=O)[O-])cc1)C(=O)O` (configuration not stated), the GI50 in the assay with SF-539 was > 100 µM (inactive); with HCT-15, more than 100 µM; in the assay on UO-31 it was > 100 µM (inactive); in the assay on SW-620, > 100 µM (inactive); in the assay on SNB-75, 80.7 µM (inactive); in the assay with IGROV-1 it was > 100 µM (inactive). For the same molecule, the GI50 with HOP-92, in the assay with 786-0, with DLD-1, with NCI-H522, in the assay with EKVX and in the assay on KM-20L2 was > 100 µM (inactive) in each case. Moreover, the GI50 in the assay on HT-29, in the assay with KM12 and in the assay with SK-OV-3 was > 100 µM (inactive) in each case.

As to `COC(=O)CC1C(=O)OCc2c1cc1n(c2=O)Cc2c-1nc1ccccc1c2OC` (configuration not stated), the GI50 in the assay with DMS-114 is 34.3 µM (inactive); with HCT-15 it was more than 100 µM; in the assay with UO-31 it was 16.3 µM (inactive); with SW-620, > 100 µM (inactive); in the assay on SNB-75 it was 6.53 µM (inactive); in the assay on IGROV-1, > 100 µM (inactive). Besides, the GI50 with HOP-92 was 20.7 µM (inactive); with 786-0 it was 37.3 µM (inactive); in the assay with NCI-H522 it was 25.8 µM (inactive); with EKVX, > 100 µM (inactive); in the assay on KM-20L2, > 100 µM (inactive); in the assay on HT-29, > 100 µM (inactive). Also, in the assay with SK-OV-3, the GI50 was 54.5 µM (inactive).

`CC(=O)NNc1nc(C)c(C(=O)NNC(=O)C(=O)Nc2c(C)cccc2C)s1`: the GI50 in the assay on SF-539 was 60.5 µM (inactive); in the assay with HCT-15, 32.3 µM; in the assay with UO-31 it was 53.8 µM (inactive); with SW-620, 42.9 µM (inactive); in the assay with SNB-75 it was 96.4 µM (inactive); in the assay with IGROV-1, 46.1 µM (inactive). Moreover, the GI50 in the assay on HOP-92 is 40.4 µM (inactive); in the assay on 786-0 it was 50.8 µM (inactive); in the assay on DLD-1, 45.5 µM (inactive); in the assay with NCI-H522, 16.1 µM (inactive); in the assay on EKVX, 37 µM (inactive); with KM-20L2, 35.2 µM (inactive). The figures for the GI50 in the assay on HT-29, in the assay with KM12 and in the assay with SK-OV-3 were 36.6 µM (inactive), 35.1 µM (inactive) and > 100 µM (inactive), respectively.

For `N#CSCc1nc2ccc(Cl)cc2c(-c2ccccc2)[n+]1[O-]`, the GI50 was 24.5 µM (inactive) in the assay with DMS-114; > 10 µM (inactive) in the assay on SF-539; 17.3 µM in the assay on HCT-15; 18.7 µM (inactive) in the assay with UO-31; 16.6 µM (inactive) in the assay with SW-620; 32.7 µM (inactive) in the assay on SNB-75. Also, the GI50 with IGROV-1 was > 10 µM (inactive); in the assay on HOP-92, 16 µM (inactive); in the assay on 786-0, 18.2 µM (inactive); in the assay on EKVX, 23.2 µM (inactive); with KM-20L2, 16.6 µM (inactive); in the assay on HT-29, 20 µM (inactive). Also, the GI50 in the assay with KM12 was 22 µM (inactive).

For `CC(C)(C)c1cc(OCc2nnc3sc(S)nn23)c(Cl)cc1OCc1nnc2sc(S)nn12`, the GI50 in the assay on SF-539 was 35.7 µM (inactive); in the assay with MDA-MB-435 it was 23.6 µM (inactive); in the assay on HCT-15, 40.6 µM; in the assay with UO-31 it was 43.9 µM (inactive); with SW-620, 31.9 µM (inactive); in the assay with SNB-75, 38.8 µM (inactive). For the same molecule, the GI50 in the assay on IGROV-1 was 23.2 µM (inactive); with T47D it was 19 µM (inactive); with Hs-578T it was 77.3 µM (inactive); with HOP-92 it was 17.5 µM (inactive); in the assay with 786-0 it was 31 µM (inactive); in the assay on NCI-H522, 17.3 µM (inactive). The GI50 in the assay with EKVX is 30.3 µM (inactive); with BT-549, 30.5 µM (inactive); in the assay with HT-29, 38 µM (inactive); with KM12, 26.9 µM (inactive); with SK-OV-3 it was 45.4 µM (inactive).

For `Cc1ccc(/C=C/C(=O)c2cccc3ccccc23)cc1`, the GI50 was 19.1 µM with HCT-15; 25 µM (inactive) with UO-31; 13.5 µM (inactive) in the assay on SW-620; 19.1 µM (inactive) with SNB-75; > 10 µM (inactive) with IGROV-1; 15 µM (inactive) with 786-0. For the same molecule, the GI50 in the assay on DLD-1 is > 10 µM (inactive); with NCI-H522, 17.1 µM (inactive); in the assay on EKVX, 17.8 µM (inactive); with KM-20L2 it was 15.8 µM (inactive); in the assay on HT-29 it was 18.2 µM (inactive); in the assay with KM12, 13.2 µM (inactive). The GI50 in the assay with SK-OV-3 is 24.4 µM (inactive).

As for `CN(C)c1ccc(/C=N/c2ccc(-c3nc4ccccc4[nH]3)cc2)cc1`, the GI50 in the assay with SF-539 is 90.4 µM (inactive); with MDA-MB-435, > 100 µM (inactive); in the assay with HCT-15 it was 24.6 µM; in the assay on UO-31, 56.4 µM (inactive); in the assay on SW-620, 32.4 µM (inactive); with SNB-75, 33.7 µM (inactive). For the same molecule, the GI50 in the assay on IGROV-1 is 47.1 µM (inactive); in the assay on T47D, 31.3 µM (inactive); in the assay with Hs-578T it was 63 µM (inactive); in the assay on HOP-92, > 100 µM (inactive); in the assay on 786-0, 74.8 µM (inactive); with NCI-H522, 56 µM (inactive). The GI50 in the assay on EKVX is > 100 µM (inactive); with BT-549, 19.3 µM (inactive); in the assay with HT-29, 39.5 µM (inactive); with KM12 it was 32.5 µM (inactive); with SK-OV-3 it was > 100 µM (inactive).

In the case of `NC(=O)c1ncn2c(=O)n(CCl)nnc12`, the GI50 with SF-539 is 72.8 µM (inactive); in the assay on MDA-MB-435 it was > 100 µM (inactive); in the assay on HCT-15, 41.4 µM; with UO-31, > 100 µM (inactive); with SW-620, 42 µM (inactive); in the assay with SNB-75, > 100 µM (inactive). Moreover, the GI50 in the assay on IGROV-1 is > 100 µM (inactive); in the assay with T47D, 94.2 µM (inactive); in the assay with Hs-578T it was > 100 µM (inactive); in the assay with HOP-92 it was > 100 µM (inactive); in the assay on 786-0 it was 85.9 µM (inactive); with NCI-H522 it was 96.8 µM (inactive). The GI50 in the assay with EKVX is > 100 µM (inactive); with BT-549 it was > 100 µM (inactive); in the assay on HT-29, 43.2 µM (inactive); with KM12 it was > 100 µM (inactive); in the assay on SK-OV-3 it was 83 µM (inactive).

As for `CCCN(CCC)C(=O)c1c([N+](=O)[O-])cc(C(F)(F)F)cc1[N+](=O)[O-]`, the GI50 is 41.6 µM (inactive) with SF-539; 27 µM with HCT-15; > 100 µM (inactive) with UO-31; 27.7 µM (inactive) in the assay with SW-620; > 100 µM (inactive) in the assay on SNB-75; 58.2 µM (inactive) with IGROV-1. Moreover, the GI50 was 34.5 µM (inactive) with HOP-92; 68.2 µM (inactive) in the assay on 786-0; 23.2 µM (inactive) in the assay with NCI-H522; 52.5 µM (inactive) in the assay with EKVX; 22.6 µM (inactive) in the assay with KM-20L2; 32.5 µM (inactive) in the assay with HT-29. For the same molecule, the results for the GI50 in the assay on KM12 and with SK-OV-3 were 46.1 µM (inactive) and > 100 µM (inactive), respectively.

Turning to `Cc1ccc(C)c(N2C(=O)C(=O)c3c(C)ccc(C)c32)c1`, the GI50 with SF-539 was 16.7 µM (inactive); in the assay on MDA-MB-435 it was 21.1 µM (inactive); in the assay with HCT-15 it was 14.2 µM; with UO-31, 22.9 µM (inactive); in the assay with SW-620 it was 27.7 µM (inactive); in the assay with SNB-75, 34.9 µM (inactive). The GI50 in the assay on IGROV-1 was 15.3 µM (inactive); in the assay with T47D it was 11.6 µM (inactive); in the assay with Hs-578T it was 22.4 µM (inactive); with HOP-92 it was 23.6 µM (inactive); with 786-0, 29.3 µM (inactive); in the assay on NCI-H522, 15.5 µM (inactive). Further, the GI50 in the assay with EKVX is 60.7 µM (inactive); with BT-549, 19.5 µM (inactive); in the assay on HT-29, 20.8 µM (inactive); in the assay on KM12, 24.5 µM (inactive); with SK-OV-3, 47.9 µM (inactive).

On to `CC(NC(=O)OCc1ccccc1)NC(=O)C(CC(=O)OC(C)(C)C)NC(=O)OC(C)(C)C` (configuration not stated), for which the GI50 was > 100 µM (inactive) in the assay with SF-539; > 100 µM (inactive) with MDA-MB-435; more than 100 µM with HCT-15; > 100 µM (inactive) in the assay with UO-31; > 100 µM (inactive) with SW-620; > 100 µM (inactive) in the assay on SNB-75. Further, the GI50 in the assay on IGROV-1, in the assay on T47D, in the assay on Hs-578T, in the assay on HOP-92, in the assay on 786-0 and in the assay on NCI-H522 was > 100 µM (inactive) each time. The GI50 in the assay with EKVX, in the assay on BT-549, in the assay with HT-29, with KM12 and in the assay on SK-OV-3 was > 100 µM (inactive) in each case.

Consider `C[N+](C)(C)CCCCCc1c2nc(c(CCCCC[N+](C)(C)C)c3ccc([nH]3)c(CCCCC[N+](C)(C)C)c3nc(c(CCCCC[N+](C)(C)C)c4ccc1[nH]4)C=C3)C=C2`, for which the GI50 in the assay on SF-539 was > 100 µM (inactive); with MDA-MB-435 it was > 100 µM (inactive); in the assay on HCT-15, more than 100 µM; in the assay with UO-31, > 100 µM (inactive); with SW-620, > 100 µM (inactive); with SNB-75, > 100 µM (inactive). Further, the GI50 in the assay on IGROV-1 is > 100 µM (inactive); in the assay on T47D it was > 100 µM (inactive); with Hs-578T it was 56 µM (inactive); in the assay with HOP-92, > 100 µM (inactive); with 786-0 it was > 100 µM (inactive); with NCI-H522, > 100 µM (inactive). For the same molecule, the GI50 in the assay on EKVX was 99.8 µM (inactive); in the assay on BT-549, > 100 µM (inactive); with HT-29, > 100 µM (inactive); in the assay on KM12 it was > 100 µM (inactive); in the assay on SK-OV-3, > 100 µM (inactive).
